Measured values: PMC12596218 (Journal of Lipid Research, 2025)
Several values for one entry are separate records, joined by “and”; a condition that tells them apart may be missing. Equal entries are not always repeated.

What was measured:
[1] = target: T1, NTCP M290T/I291V (NTCP→mAsbt) (Homo sapiens, UniProt Q14973, I291V/M290T); assay: [3H]TC transport and inhibition assay, NTCP→mAsbt mutant in HEK293 cells; assay type: cell-based; settings: 1 μM [3H]TC, 10 min
T1 construct: stably transfected with the full open reading frames of human NTCP, ASBT, SOAT, OATP1B1, OATP1B3, OATP2B1, and murine Asbt (mAsbt); expressed in transfected cells; host or cells: HEK293, stably transfected
T1 sequence (Q14973 1-349 M290T/I291V): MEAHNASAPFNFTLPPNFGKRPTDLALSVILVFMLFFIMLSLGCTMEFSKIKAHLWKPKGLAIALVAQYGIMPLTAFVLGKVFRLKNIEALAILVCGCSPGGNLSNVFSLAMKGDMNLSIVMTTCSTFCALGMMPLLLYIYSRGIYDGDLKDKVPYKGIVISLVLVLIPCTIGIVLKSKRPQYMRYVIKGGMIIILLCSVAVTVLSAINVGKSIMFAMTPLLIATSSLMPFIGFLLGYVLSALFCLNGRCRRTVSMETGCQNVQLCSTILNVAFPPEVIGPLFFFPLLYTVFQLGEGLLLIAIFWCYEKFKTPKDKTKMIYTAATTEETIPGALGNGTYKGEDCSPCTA
Protocol: Amplification was performed on a peqSTAR XS PEQLAB PCR cycler (Peqlab) with Pfu DNA polymerase (M774A; Promega) in 18 cycles under the following conditions: initial denaturation for 2 min at 95°C, denaturation for 30 s at 95°C, annealing for 1 min at 55°C, extension for 8 min and 30 s at 72°C, final elongation for 10 min at 72°C and final hold at 4°C. After amplification, the products were digested with DpnI (ER1701; Thermo Fisher Scientific) for 1 h at 37°C and transformed into TOP10 chemically competent E. coli (Thermo Fisher Scientific). Plasmids were isolated using a GeneJET Plasmid Miniprep Kit (Thermo Fisher Scientific) according to the manufacturer's protocol, and the generated point mutations were verified by DNA sequencing (Seqlab Microsynth).
(§1) Cells were seeded onto poly-L-lysine-coated 96-well plates, induced with 1 μg/ml tetracycline, and grown to confluence over 72 h at 37°C. Then, cells were washed with tempered (37°C) phosphate-buffered saline (PBS, containing 137.0 mM NaCl, 2.7 mM KCl, 1.5 mM KH2PO4, and 7.3 mM Na2HPO4, at pH 7.4) and preincubated with 80 μl sodium transport buffer (STB, containing 142.9 mM NaCl, 4.7 mM KCl, 1.2 mM MgSO4, 1.2 mM KH2PO4, 1.8 mM CaCl2, and 20.0 mM HEPES, at pH 7.4) for 5 min at 37°C. For inhibition studies, the medium was replaced by 80 μl STB containing the respective inhibitor or solvent alone and cells were further incubated for 5 min at 37°C. Transport experiments were started by adding 20 μl of a 5-fold concentrated substrate solution (solved in STB). For transport experiments under sodium-free conditions the same buffer composition was used as for STB, but sodium chloride was substituted with equimolar concentrations of choline chloride as previously reported ([20], [24]). Transport experiments were stopped by washing twice with ice-cold PBS and the plates were kept cool on ice until adding the lysis buffer [1% sodium dodecyl sulfate (SDS) and 1 N NaOH]. Then, the cell-associated radioactivity of the respective tritium-labeled substrate or ligand was quantified by liquid scintillation counting using MicroScint-20 scintillation cocktail (Revvity) in a Packard Microplate Scintillation Counter TopCount NXT (Packard Instrument Company). For IC50 transport inhibition measurements, the mean uptake values measured in non-carrier-expressing HEK293 control cells were defined as 0% uptake control and were subtracted from all other values. Values from cells without inhibitor and solvent alone were set to 100%. Finally, all net transport data were expressed as uptake or binding as % of control. All transport or inhibition graphs were generated with GraphPad Prism 6 (GraphPad). Determination of half maximal inhibitory concentrations (IC50) was done by nonlinear regression analysis using the equation log (inhibitor) versus response—variable slope settings. All data points of the IC50 curves represent means ± SD of quadruplicate determinations. For Km measurements, BS uptake in the absence of sodium was regarded as carrier-independent unspecific uptake and was subtracted from the transport rates in the presence of sodium to obtain carrier-specific uptake rates (indicated as dashed lines). From the specific uptake rates, Michaelis Menten Km values were calculated by non-linear regression analysis.

[2] = target: T2, OATP1B1 (Homo sapiens, UniProt Q9Y6L6); assay: [3H]E1S transport inhibition assay in OATP1B1-HEK293 cells; assay type: cell-based; settings: 200 nM [3H]E1S, 10 min; two independent experiments
T2 construct: stably transfected with the full open reading frames of human NTCP, ASBT, SOAT, OATP1B1, OATP1B3, OATP2B1, and murine Asbt (mAsbt); expressed in transfected cells; host or cells: HEK293, stably transfected (OATP1B1-HEK), tetracycline-induced
T2 sequence (Q9Y6L6 1-691): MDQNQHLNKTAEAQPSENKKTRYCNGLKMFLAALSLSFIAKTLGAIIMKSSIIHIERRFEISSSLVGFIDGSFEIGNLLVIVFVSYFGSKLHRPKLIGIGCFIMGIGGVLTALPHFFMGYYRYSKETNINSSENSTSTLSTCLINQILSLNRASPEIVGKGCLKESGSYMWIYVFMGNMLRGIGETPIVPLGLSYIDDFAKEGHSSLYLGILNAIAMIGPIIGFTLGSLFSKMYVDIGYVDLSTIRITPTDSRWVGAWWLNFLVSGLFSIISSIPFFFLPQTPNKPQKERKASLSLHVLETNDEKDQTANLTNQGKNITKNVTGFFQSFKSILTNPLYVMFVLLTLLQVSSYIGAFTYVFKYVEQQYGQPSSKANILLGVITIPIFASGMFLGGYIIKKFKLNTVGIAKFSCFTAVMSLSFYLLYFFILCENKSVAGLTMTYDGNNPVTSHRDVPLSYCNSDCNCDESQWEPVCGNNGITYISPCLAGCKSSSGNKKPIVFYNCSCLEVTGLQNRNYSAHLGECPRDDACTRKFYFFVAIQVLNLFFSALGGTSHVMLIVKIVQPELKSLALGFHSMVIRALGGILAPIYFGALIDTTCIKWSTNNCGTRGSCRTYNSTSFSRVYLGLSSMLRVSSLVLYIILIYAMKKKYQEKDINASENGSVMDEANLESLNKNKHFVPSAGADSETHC
From the text: Human embryonic kidney HEK293 cells, stably transfected with the full open reading frames of human NTCP, ASBT, SOAT, OATP1B1, OATP1B3, OATP2B1, and murine Asbt (mAsbt) were used as reported ([18], [20], [21], [22], [23]). The NTCP, ASBT, and mAsbt constructs were C-terminally tagged with the FLAG epitope, and the SOAT construct was C-terminally tagged with green fluorescent protein. Non-transfected Flp-In HEK293 cells (Thermo Fisher Scientific) served as the control. All cell lines were maintained at 37°C, 5% CO2 and 95% humidity in DMEM/F-12 medium (Thermo Fisher Scientific) supplemented with 10% fetal calf serum (Sigma-Aldrich), 4 mM L-glutamine (PAA) and penicillin/streptomycin (PAA). Expression of the respective carrier protein was induced by tetracycline treatment at 1 μg/ml (Carl Roth GmbH + Co. KG).
as §1

| Structure (SMILES) | Inhibition curves and AUC of NTCP→mAsbt mutant compared to wild-type NTCP [1] | IC50 [2] |
| --- | --- | --- |
| CCCCC1(CCCC)CS(=O)(=O)c2ccc(N(C)C)cc2[C@@H](c2ccc(OCCCC[N+]34CCN(CC3)CC4)cc2)[C@H]1O [SC-435] | still inactive | > 10 µM and 41.3 µM and 30.7 µM |
| CCCCC1(CCCC)CN(c2ccccc2)c2cc(SC)c(OCC(=O)N[C@@H](C(=O)NCC(=O)O)c3ccccc3)cc2S(=O)(=O)C1 [elobixibat] | did not significantly change | 4.5 µM and 4.4 µM |
| CCCC[C@]1(CC)CS(=O)(=O)c2cc(CNC(CC(=O)O)CC(=O)O)c(OC)cc2[C@@H](c2ccccc2)N1 [linerixibat] | still inactive | > 10 µM and 29.1 µM and 12 µM |
| CCCCC1(CCCC)CS(=O)(=O)c2ccc(N(C)C)cc2[C@@H](c2ccc(OCc3ccc(C[N+]45CCN(CC4)CC5)cc3)cc2)[C@H]1O [maralixibat] | did not significantly change | 9 µM and 8.3 µM |
| CCCCC1(CCCC)CN(c2ccccc2)c2cc(SC)c(OCC(=O)N[C@@H](C(=O)N[C@@H](CC)C(=O)O)c3ccc(O)cc3)cc2S(=O)(=O)N1 [odevixibat] | did not significantly change | 4 µM and 1.6 µM |
